{"source": "ChEMBL document CHEMBL2073852", "about": "“Transport of fluorescein methotrexate by multidrug resistance-associated protein 3 in IEC-6 cells” (Am J Physiol Gastrointest Liver Physiol, 2003)", "molecules": {"B1": {"name": "ATP-binding cassette sub-family C member 3 (Rattus norvegicus) (protein)", "chain": "MDRLCGSGELGSKFWDSNLTVYTNTPDLTPCFQNSLLAWVPCIYLWAALPCYLFYLRHHRLGYIVLSCLSRLKTALGVLLWCISWVDLFYSFHGLVHGSSPAPVFFITPLLVGITMLLATLLIQYERLRGVRSSGVLIIFWLLCVICAIIPFRSKILLALAEGKILDPFRFTTFYIYFALVLCAFILSCFQEKPPLFSPENLDTNPCPEASAGFFSRLSFWWFTKLAILGYRRPLEDSDLWSLSEEDCSHKVVQRLLEAWQKQQTQASGPQTAALEPKIAGEDEVLLKARPKTKKPSFLRALVRTFTSSLLMGACFKLIQDLSPSSTHSCSASSSGLFRPHGPYWWGFLLAGLMFVSSTMQTLILHQHYHCIFVMALRIRTAIIGVIYRKALTITNSVKREYTVGEMVNLMSVDAQRFMDVSPFINLLWSAPLQVILAIYFLWQILGPSALAGVAVIVLLIPLNGAVSMKMKTYQVQQMKFKDSRIKLMSEILNGIKVLKLYAWEPTFLEQVEGIRQGELQLLRKGAYLQAISTFIWVCTPFMVTLITLGVYVCVDKNNVLDAEKAFVSLSLFNILKIPLNLLPQLISGMTQTSVSLKRIQDFLNQDELDPQCVERKTISPGRAITIHNGTFSWSKDLPPTLHSINIQIPKGALVAVVGPVGCGKSSLVSALLGEMEKLEGAVSVKGSVAYVPQQAWIQNCTLQENVLFGQPMNPKRYQQALETCALLADLDVLPGGDQTEIGEKGINLSGGQRQRVSLARAVYSDANIFLLDDPLSAVDSHVAKHIFDQVIGPEGVLAGKTRVLVTHGISFLPQTDFIIVLADGQITEMGHYSELLQHDGSFANFLRNYAPDENQEANEGVLQHANEEVLLLEDTLSTHTDLTDTEPAIYEVRKQFMREMSSLSSEGEGQNRPVLKRYTSSLEKEVPATQTKETGALIKEEIAETGNVKLSVYWDYAKSVGLCTTLFICLLYAGQNAVAIGANVWLSAWTNDVEEHGQQNNTSVRLGVYATLGILQGLLVMLSAFTMVVGAIQAARLLHTALLHNQIRAPQSFFDTTPSGRILNRFSKDIYVIHEVLAPTILMLFNSFYTSISTIVVIVASTPLFCVVVLPLAVFYGFVQRFYVATSRQLKRLESVSRSPIFSHFSETVTGTSVIRAYGRVQDFKVLSDAKVDSNQKTTYPYIASNRWLGVHVEFVGNCVVLFSALFAVIGRNSLNPGLVGLSVSYALQVTLSLNWMIRTLSDLESNIIAVERVKEYSKTETEAPWVLESNRAPEGWPRSGVVEFRNYSVRYRPGLELVLKNLTLHVQGGEKVGIVGRTGAGKSSMTLCLFRILEAAEGEIFIDGLNVAHIGLHDLRSQLTIIPQDPILFSGTLRMNLDPFGRYSDEDIWRTLELSHLSAFVSSQPTGLDFQCSEGGDNLSVGQRQLVCLARALLRKSRVLVLDEATAAIDLETDDLIQGTIRTQFEDCTVLTIAHRLNTIMDYNRVLVLDKGVVAEFDSPVNLIAAGGIFYGMAKDAGLA"}}, "format_in_all_cases": "functional, cell membranes, Membrane vesicle", "key": {"[1]": {"biological_target": "T1, Mrp3 (ATP-binding cassette sub-family C member 3, ABCC3) (Rattus norvegicus, UniProt O88563)", "test": "TP_TRANSPORTER: inhibition of F-MTX uptake (F-MTX: 5.0 uM, E217betaG: 75.0 uM) in membrane vesicles from Mrp3-Sf9 cells", "parameters": "scale not given: the % may be the effect or the level left", "settings": "membrane vesicles from Mrp3-expressing Sf9 cells, probe F-MTX; read-out: Activity"}, "[2]": {"biological_target": "ATP-binding cassette sub-family C member 3 (Rattus norvegicus, UniProt O88563)", "test": "TP_TRANSPORTER: inhibition of F-MTX uptake (F-MTX: 5.0 uM, E217betaG: 75.0 uM) in membrane vesicles from IEC-6 cells", "parameters": "scale not given: the % may be the effect or the level left", "settings": "iec-6, 75 µM"}, "[3]": {"biological_target": "T1, Mrp3 (ATP-binding cassette sub-family C member 3, ABCC3)", "test": "TP_TRANSPORTER: inhibition of F-MTX uptake (F-MTX: 5.0 uM, MK-571: 100.0 uM) in membrane vesicles from IEC-6 cells", "parameters": "scale not given: the % may be the effect or the level left", "settings": "probe F-MTX, read-out: Activity"}, "[4]": {"biological_target": "T1, Mrp3 (ATP-binding cassette sub-family C member 3, ABCC3)", "test": "TP_TRANSPORTER: inhibition of F-MTX uptake (F-MTX: 5.0 uM, MK-571: 100.0 uM) in membrane vesicles from Mrp3-Sf9 cells", "parameters": "scale not given: the % may be the effect or the level left", "settings": "membrane vesicles from Mrp3-expressing Sf9 cells, probe F-MTX; read-out: Activity"}, "[5]": {"substrate": "CN(Cc1cnc2nc(N)nc(N)c2n1)c1ccc(C(=O)N[C@@H](CCC(=O)O)C(=O)O)cc1", "test": "TP_TRANSPORTER: uptake in membrane vesicles from IEC-6 cells"}, "[6]": {"substrate": "CN(Cc1cnc2nc(N)nc(N)c2n1)c1ccc(C(=O)N[C@@H](CCC(=O)O)C(=O)O)cc1", "test": "TP_TRANSPORTER: uptake in membrane vesicles from Mrp3-Sf9 cells"}}, "data": [{"molecule": "C[C@]12CC[C@@H]3c4ccc(O)cc4CC[C@H]3[C@@H]1CC[C@@H]2O[C@@H]1O[C@H](C(=O)O)[C@@H](O)[C@H](O)[C@H]1O", "note": "[ESTRADIOL 17B GLUCURONIDE]", "values": [{"measurement": "activity at 75 µM", "setting": "[1]", "result": 19.2, "unit": "%"}, {"measurement": "Activity", "setting": "[2]", "result": 41.7, "unit": "%"}]}, {"molecule": "CN(C)C(=O)CCSC(SCCC(=O)O)c1cccc(/C=C/c2ccc3ccc(Cl)cc3n2)c1", "note": "(stereo unspecified) [MK-571]", "values": [{"measurement": "activity at 100 µM", "setting": "[3]", "result": 9.5, "unit": "%"}, {"measurement": "activity at 100 µM", "setting": "[4]", "result": 4.9, "unit": "%"}]}, {"molecule": "B1", "values": [{"measurement": "Km", "setting": "[5]", "result": 11.7, "unit": "µM"}, {"measurement": "Km", "setting": "[6]", "result": 4.5, "unit": "µM"}]}]}
